According to patent US20160022875A1, “BONE SUBSTITUTES GRAFTED BY MIMETIC PEPTIDES OF HUMAN BMP 2 PROTEIN” (TEKNIMED, priority 2013, published 2016):

Test system: Runx2 gene
Assay: Runx2 expression by RT-PCR as a function of density of peptide P1 grafted on a PET model support
Assay type: cell-based
Details: P1 grafted on PET at 0.4, 1.2 and 4.3 pmol/mm^2
Method: The peptide P1 was covalently grafted onto a model support, at three different densities. The support is made of polyethylene terephthalate (PET). The densities are 0.4 pmol/mm^2, 1.2 pmol/mm^2 and 4.3 pmol/mm^2. The expression level of the Runx2 factor by RT-PCR as a function of the density of the peptide P1 grafted at the surface of a model support was measured for these three densities (FIG. 13). The best expression level of the Runx2 gene is obtained for 1.2 pmol/mm^2 of peptide density, which corresponds to a maximum cell differentiation activity for the model support.
The activity obtained is also stable over time (after 1 week of culture): at 96 h of culture, a continuous increase in the expression of the Runx2 factor (approximately 42%) is observed.

CKIPKASSVPTELSAISMLYL [P1]
peptide density giving the best expression level of the Runx2 gene: 1.2 pmol/mm^2
